The values below come from patent EP4595976A1, “COMPOSITION FOR TREATING CANCER CONTAINING HISTONE DEACETYLASE INHIBITOR, AND ANTICANCER ADJUVANT FOR CANCER IMMUNOTHERAPY” (Samsung Life Public Welfare Foundation, priority 2022, dated 2024).

Data set [1] concerns PD-L1. Nature of the data set: PD-L1 expression (real-time PCR, western blot) in colorectal cell lines 48 hours after HDAC inhibitor treatment. In kind it is cell-based. The note with it: for PD-L1 expression: IC50 and 1/2 IC50, 48 hours, FIG. 2; for PD-L1 expression at the RNA and protein levels: depending on the concentration. The procedure:
The HDAC3 inhibitor experiment was conducted by harvesting cells 48 hours after the treatment at each inhibitor concentration and obtaining RNA and proteins. RGFP966 (S7229) purchased from SellekChem was used as an HDAC3 inhibitor. Specifically, SW620, LS513, DLD-1, CT26, and MC38 were individually cultured, and the experiments were conducted using the IC50 and 1/2 IC50 concentration on the basis of the previously determined IC50 concentration. RNA and protein samples were collected 48 hours after RGFP966 treatment. The RNA samples were isolated using the TRIzol, isopropanol, and chloroform, and the protein samples were collected by lysis with a lysis buffer (Roche, 4719956001). RNA was synthesized into cDNA using a cDNA synthesis kit (Bioneer, K-2044-B), and real-time PCR was performed using a method according to SYBR (Applied Biosystems, 4367659). Proteins were quantified using the Bradford assay (Bio-Rad, 50000006), and subjected to loading, transfer, blocking (3% skim milk; BD, 232100), primary antibody (24 h, 4°C), and secondary antibody sequentially, thereby developing PD-L1.
The HDAC6 inhibitor experiment was conducted by the same method as in the HDAC3 inhibitor experiment of Experimental Example 3, and Nexturastat A HDAC6 selective inhibitor purchased from SellekChem was used as an HDAC6 inhibitor.
The HDAC8 inhibitor experiment was conducted by the same method as in the HDAC3 inhibitor experiment of Experimental Example 3, and PCI-34051 HDAC8 selective inhibitor purchased from SellekChem was used as an HDAC8 inhibitor.
The HDAC6 and HDAC8 inhibitor experiment was conducted by harvesting cells 48 hours after the treatment and then obtaining RNA and proteins.

In data set [2] the test system is SW620. Nature of the data set: IC50 concentration at which 50% of cells are dead, inhibitor treatment for 48 hours. The note with it: Homo sapiens, SW-620, Table 3, SW620 (MSS), read-out: IC50(mean±SD). The format is cell-based. The procedure: (§1) The IC50 concentration, which is the concentration at which 50% of cells are dead, was obtained by treating each cell line with an inhibitor at different concentrations for 48 hours and then determining the concentrations at which 50% of the cells were dead. Especially, the results obtained by treating various MSS cell lines (SW620, LS513, HT29, and CT26) with HDAC6i are shown in Table 4 below.

In data set [3] the test system is DLD-1. The data set is described as above. In kind it is cell-based. As to conditions: Homo sapiens, Table 3, DLD-1 (MSI), read-out: IC50(mean±SD). On the procedure:
as §1

The subject of data set [4] is LS513. The data set is described as above. In kind it is cell-based. As to conditions: Homo sapiens, LS-513, Table 3, LS513 (MSS), read-out: IC50(mean±SD). The procedure: as §1
Data set [5] relates to HT29. Described as above. The note with it: Homo sapiens, HT-29; Table 4; HT29, MSS (48hr); read-out: IC50(mean±SD). The format is cell-based. On the procedure: as §1
For data set [6], the system named is CT26. Described as above. The format is cell-based. The note with it: Mus musculus; Table 4; CT26, MSS (48hr); read-out: IC50(mean±SD). On the procedure:
as §1

Data set [7] has as its system PD-L1 and B7H3. Nature of the data set: PD-L1 and B7H3 expression after HDAC6 inhibitor treatment in MSI and MSS colorectal cancer cell lines. The note with it: IC50 and half-IC50 concentrations; MSS cell line compared with MSI cell line; FIG. 15. The format is cell-based. The procedure:
The IC50 values of the HDAC6 inhibitor (Nexturastat A) in three MSI colorectal cancer cell lines (DLD-1, HCT116, and MC38) and three MSS colorectal cancer cell lines (SW620, HT29, and CT26) were determined. The cells were then treated with the inhibitor at the IC50 and half-IC50 concentrations (concentration corresponding to 1/2 of the IC50 value), and the expression levels of the immune checkpoint proteins PD-L1 and B7H3 were measured.

Data set [8] concerns CT26. Kind of data set: Animal experiment using HDAC6 inhibitor with or without anti-PD-L1 antibody, CT26 tumors. The format is in vivo. The note with it: during treatment with HDAC6 inhibitor; FIG. 9D. The procedure: The animal experiment using an HDAC6 inhibitor was conducted using a total of three groups, a control group (control), an HDAC6i (Next A) group, and an HDAC6i (Next A)+anti-PD-L1 group. Nexturastat A (SellekChem) was used as HDAC6i (HDAC6 inhibitor), and #BE0101(Bioxcell) was used as an anti-PD-L1 antibody. CT26 (1x10^6) cells and BALB/C mice were used. Three mice for the control group, three mice for the HDAC6i group, and four mice for the HDAC6i+anti-PD-L1 group were used.
• HDAC6i group: HDAC6i 20 mpk(mg/kg) intraperitoneally injected daily • HDAC6i+anti-PD-L1 group: HDAC6i 20 mpk intra peritoneally injected every day and anti-PD-L1 antibody 10 mpk intra peritoneally injected three times per week.
In addition, paraffin blocks of tumor tissues were prepared for histological staining, and subjected to H&E and TUNEL assay in order to investigate cell death. […]
Additionally, the expression of related genes was examined by real-time PCR after the isolation of RNA form tumors. In the animal experiment according to an example of the present invention, the mRNA changes of PD-L1, TNF-a and IFN-γ (pro-inflammatory cytokines), IL-6 (anti-inflammatory cytokine), and IRF-1 (target gene for JAK2/STAT1 signaling) were measured, and the results are shown in FIG. 11.

Take `Nc1cc(F)ccc1NC(=O)/C=C/c1cnn(C/C=C/c2ccccc2)c1` [RGFP966]: the PD-L1 expression entry in data set [1] (MSS cell lines (SW620, LS513, and CT26), compared with HDAC6 and HDAC8) is reported as “small increases”; in data set [1] (mouse cells), “decrease tendency”. Also, the values for the IC50 in data set [2], in data set [3] and in data set [4] were 23.8 µM, 119 µM and 43.1 µM, respectively.
As for `CCCCN(Cc1ccc(C(=O)NO)cc1)C(=O)Nc1ccccc1` [Nexturastat A], the “PD-L1 expression at the RNA and protein levels” value in data set [1] (MSS cell lines (SW620, LS513, HT29, and CT26), FIG. 4) is “increase”. For the same compound, the IC50 (as a rule, the concentration that inhibits the measured activity by half) in data set [2] is 6.8 µM; in data set [3] it was 10.8 µM; in data set [4], 26.9 µM; in data set [5], 11.3 µM; in data set [6] it was 27.1 µM. Also, the B7H3 expression result in data set [7] is reported as “distinct increase tendencies”. In data set [7], the PD-L1 expression result is “distinct increase tendencies”. Moreover, the “body weight of the mice” value in data set [8] is listed as “not reduced”.
For the compound `COc1ccc(Cn2ccc3ccc(C(=O)NO)cc32)cc1` [PCI-34051], in data set [1] (MSS cell lines (SW620, LS513, and CT26), FIG. 6), the “PD-L1 expression at the RNA and protein levels” value was “increase”. Further, the IC50 in data set [2] turned out to be 31.8 µM; in data set [3], 6.36 µM; in data set [4], 19.6 µM.
